Results: patent US6441039B1, “Gastro-intestinal adverse effect-free composition comprising an L-carnitine replacement” (priority 1998, dated 2002)
Where “and” joins values, the source holds several entries; their conditions need not be identical. Equal values may be shown once. Where a name gives a salt, the structure may show the parent alone. Marks after values point to notes of the source that are not given here.

Experiments:
[1] = tested on: gastrointestinal motility; assay: charcoal propulsion test, intestinal motility after single oral dose
Experimental: A study on the effect on intestinal motility of L-carnitine acid fumarate vs. L-carnitine L-tartrate administered by the oral route to the rat at a single dose, using the charcoal propulsion test, is hereinbelow reported.
35-day old, Hsd Sprague Dawley (SD) male rats (Harlan), weighing 125-150 g were used in the study. The rats were supplied by Harlan Nossan S.r.l., 8, Via E. Fermi, 20050 Correzzana (MI)—Italy.
Eight male rats/group were treated orally with L-Carnitine acid Fumarate, at the doses of 430-855 and 1710 mg/10 ml/kg, and with L-Carnitine L-Tartrate at the doses of 365-730 and 1455 mg/10 ml/kg.
The doses of the two compounds were chosen as equimolar to 250-500 and 1000 mg/kg of L-Carnitine Inner Salt.
Two additional groups, each consisting of eight males, were set up and orally treated respectively with the vehicle (Control group—0.5% Carboxymethylcellulose (MC) in deionized water: 10 ml/kg) or with Atropine (30 mg/10 ml/kg) as reference standard.
The animals were subdivided at random (in number of 4/cage) into the different dosage groups according to the following scheme:
Forty-five minutes after the administration of all the above reported substances, each rat received orally 1.5 ml of a 10% charcoal suspension.
Exactly twenty minutes after dosing with charcoal suspension the rats were sacrificed; then the distance the charcoal meal had travelled throughout the intestine (from the pyloric sphincter towards the caecum) was measured and expressed as a percentage of the total gut length.

[2] = oral intake, dose-related; cited from earlier work
[3] = individual rats, oral 30 mg/10 ml/kg

SMILES: CN1[C@@H]2CC[C@H]1C[C@@H](OC(=O)C(CO)c1ccccc1)C2 (stereo partly drawn) [Atropine]
- Distance travelled as % of total intestine length (individual rat) [1, 3]: 48.74% and 39.68% and 37.50% and 46.56% and 44.07% and 44.96% and 42.06% and 41.60%
- Distance travelled by charcoal (individual rat) [1, 3]: 58 cm (2×) and 50 cm and 45 cm and 61 cm and 52 cm (2×) and 53 cm
- % change from vehicle ([1]; rat, oral 30 mg/10 ml/kg): −30.87%
- change in gastrointestinal motility vs control group ([1]; rat, oral 30 mg/kg): statistically highly significant (p<0.001) decrease in gastrointestinal motility
- Distance travelled as % of total intestine length (mean) ([1]; rat, oral single dose 30 mg/10 ml/kg, n=8, p<0.001 vs control): 43.15 ▴ %

SMILES: C[N+](C)(C)C[C@H](O)CC(=O)[O-] [L-carnitine, L-carnitine inner salt]
- gastrointestinal adverse effect in users [2]: episodes of diarrhoea have been frequently reported
